Source: ChEMBL document CHEMBL1152549, “Synthesis and molecular modeling of some novel hexahydroindazole derivatives as potent monoamine oxidase inhibitors” (Bioorg Med Chem, 2009)

How the values were obtained:
[1] = biological target: T1, Amine oxidase [flavin-containing] B (Rattus norvegicus, UniProt P19643); experiment: Competitive inhibition of MAOB in rat liver homogenate by spectrophotometrically; assay type: tissue-based
T1 sequence (P19643 whole entry): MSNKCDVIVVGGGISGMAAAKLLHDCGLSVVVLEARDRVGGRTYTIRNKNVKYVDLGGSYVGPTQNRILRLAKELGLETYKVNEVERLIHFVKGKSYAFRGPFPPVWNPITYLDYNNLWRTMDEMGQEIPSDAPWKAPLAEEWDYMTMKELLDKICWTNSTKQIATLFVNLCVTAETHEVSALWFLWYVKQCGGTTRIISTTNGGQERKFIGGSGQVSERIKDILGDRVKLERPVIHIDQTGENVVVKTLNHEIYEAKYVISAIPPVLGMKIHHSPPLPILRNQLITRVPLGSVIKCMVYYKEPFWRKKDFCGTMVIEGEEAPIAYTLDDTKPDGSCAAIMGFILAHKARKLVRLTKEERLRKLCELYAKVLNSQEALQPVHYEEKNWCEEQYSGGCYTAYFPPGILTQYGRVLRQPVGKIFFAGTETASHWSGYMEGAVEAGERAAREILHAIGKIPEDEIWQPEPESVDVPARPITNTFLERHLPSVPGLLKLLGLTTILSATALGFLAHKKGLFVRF

Rattus norvegicus = species on record: Rattus norvegicus; experiment: Selectivity index, ratio of Ki for rat MAOA to Ki for rat MAOB
[2] = biological target: T2, Amine oxidase [flavin-containing] A (Rattus norvegicus, UniProt P21396); experiment: Competitive inhibition of MAOA in rat liver homogenate by spectrophotometrically; assay type: tissue-based
T2 sequence (P21396 whole entry): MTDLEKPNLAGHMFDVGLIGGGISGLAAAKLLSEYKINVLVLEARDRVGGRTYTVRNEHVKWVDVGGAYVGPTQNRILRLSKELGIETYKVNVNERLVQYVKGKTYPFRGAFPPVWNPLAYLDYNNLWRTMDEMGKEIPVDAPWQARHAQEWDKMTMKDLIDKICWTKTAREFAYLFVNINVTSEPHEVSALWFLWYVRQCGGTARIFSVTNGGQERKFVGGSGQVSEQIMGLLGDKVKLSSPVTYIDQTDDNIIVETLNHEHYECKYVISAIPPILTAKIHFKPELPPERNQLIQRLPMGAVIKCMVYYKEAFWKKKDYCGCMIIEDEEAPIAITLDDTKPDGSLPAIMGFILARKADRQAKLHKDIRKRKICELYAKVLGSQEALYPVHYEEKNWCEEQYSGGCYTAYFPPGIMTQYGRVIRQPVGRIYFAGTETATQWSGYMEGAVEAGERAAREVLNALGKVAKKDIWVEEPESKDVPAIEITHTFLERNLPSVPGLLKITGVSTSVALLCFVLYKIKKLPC

SMILES | IC50 [1] [µM] | Ki [1] [µM] | Ratio Ki (Rattus norvegicus) | IC50 [2] [µM] | Ki [2] [µM]
CNC(=S)N1NC2=C(CCCC2)C1c1cccs1 (configuration not stated) | 2.61 | 1.69 | 2.96 | 62.3 | 5.01
O=C(NCCN1CCOCC1)c1ccc(Cl)cc1 [MOCLOBEMIDE] | 89.5 | 1.08 |  |  | 
NC(=S)N1NC2=C(CCCC2)C1c1cccs1 (configuration not stated) | 1.26 | 0.0009 | 3320 | 95.2 | 2.99
S=C(Nc1ccccc1)N1NC2=C(CCCC2)C1c1cccs1 (configuration not stated) | 75.1 | 92.3 | 0.004 | 0.7 | 0.0391

Now from value to compound:

IC50 [1] [µM] | Ki [1] [µM] | Ratio Ki (Rattus norvegicus) | IC50 [2] [µM] | Ki [2] [µM] | SMILES
2.99 | 2.1 | 4.2 | 108 | 8.82 | CNC(=S)N1NC2=C(CCCC2)C1c1ccco1 (configuration not stated)
1.37 | 0.00096 | 4060 | 80.2 | 3.9 | NC(=S)N1NC2=C(CCCC2)C1c1ccco1 (configuration not stated)
80.4 | 1.23 | 0.0034 | 0.78 | 0.00422 | S=C(Nc1ccccc1)N1NC2=C(CCCC2)C1c1ccco1 (configuration not stated)
2.77 | 1.95 | 2.19 | 110 | 4.26 | CCNC(=S)N1NC2=C(CCCC2)C1c1ccco1 (configuration not stated)
90.1 | 3.01 | 0.57 | 3.01 | 1.72 | CCNC(=S)N1NC2=C(CCCC2)C1c1cccs1 (configuration not stated)
